Results as given in patent US7202278B2, “4-fluoro-N-indan-2-yl benzamide and its use as a pharmaceutical” (Sanofi-Aventis Deutschland GmbH, priority 2001, dated 2007).

Assays:
eNOS protein expression = assay: eNOS protein detection in HUVEC by quantitative Western blotting; type: cell-based, human; settings: 18 h incubation
Experimental: The effect of the compound (I) on eNOS-transcription was confirmed in a second assay based on eNOS protein detection. Primary human umbilical vein cord endothelial cells (HUVEC) were isolated and cultivated according to standard procedures. Confluent cells were incubated with compound (I) for 18 h and the effect on eNOS protein expression determined by a quantitative Western blotting procedure. After incubation of compound (I), HUVEC were lysed in ice-cold lysis buffer containing 10 mM Tris-HCl, pH 8.0, 1% SDS and protease inhibitors. The lysate was subjected to a standard denaturating polyacrylamid gel electropheresis and blotted to nitrocellulose membranes. Using a specific primary monoclonal antibody (Transduction Laboratories, UK) and alkaline phosphatase labelled secondary antibody (Jackson Labs), a specific eNOS protein band was visualized and quantified based on a chemifluorescence detection method.

ApoE deficient mice [1] = assay: Inhibition of neointima formation and atherogenesis (femoral artery cuff), ApoE deficient mice; type: in vivo
Source text: (§1) ApoE and eNOS deficient mice (C57BL/6J background, Jackson Laboratory, Bar Harbor, Me.) were used. All animals were 10–12 weeks of age and weighed 22 to 28 g. Three days before surgery, mice were divided into 4 groups (apoE control, n=10–12; apoE with compound (I), n=10–12; eNOS control, n=10–12; eNOS with compound (I), n=10–12) and received either a standard rodent chow (containing 4% fat and 0.001% cholesterol; in the following designated as placebo group) or a standard rodent chow+compound (I) (10 or 30 mg/kg/d p.o.).
After 3 days treatment of ApoE deficient mice with compound (I), (10 mg/kg/d pressed in chow), animals were anesthetized with an intraperitoneal injection of pentobarbital (60 mg/kg) followed by an intramuscular injection of xylazin (2 mg/kg) and a cuff was placed around the femoral artery as described in Moroi et at. (J Clin Invest. 101:1225–32, 1998). Briefly, the left femoral artery was dissected. A non-occlusive 2.0 mm polyethylene cuff made of PE-50 tubing (inner diameter 0.56 mm, outer diameter 0.965 mm, Becton Dickinson, Mountain View, Calif.) was placed around the artery and tied in place with two 7–0 sutures. The right femoral artery was isolated from the surrounding tissues but a cuff was not placed. Treatment with compound (I) was continued for 14 days after surgery. Then the animals were sacrificed. The aortas were taken for determination of vascular eNOS expressions by quantitative western blotting. Both femoral arteries were harvested, fixed in formalin and embedded in paraffin. 20 cross sections (10 μm) were cut from the cuffed portion of the left femoral artery and from the corresponding segment of the right artery. Sections were subjected to standard hematoxylin and eosin staining. Morphometric analyses were performed using an image analysis computer program (LeicaQWin, Leica Imaging Systems, Cambridge, GB). For each cross section the area of the lumen, the neointima and the media were determined. […] The ratio between the area of the neointima and the area of the media was expressed as the neointima/media ratio.

ApoE deficient mice [2] = assay: Anti-hypertensive effect in ApoE knockout mice (tail-cuff); type: in vivo; settings: 30 mg/kg/d p.o. in chow, after 4 months treatment, placebo 115±2 mmHg, p<0.05
Source text: as §1
(§2) Blood-pressure was determined in conscious mice using a computerized tail-cuff system.

ApoE deficient mice [3] = assay: Prevention of atherosclerotic plaque formation in chronic treatment; type: in vivo
Source text: as §1
ApoE deficient mice were treated for 16 weeks with compound (I) pressed in chow and finally sacrificed. Aortas were removed from each mouse, fixed in formalin and embedded in paraffin. Plaque formation was measured via lipid lesions formation in the aortas (from aortic arch to diaphragm) and was analyzed by oil red O staining. For quantifying the effect of the respective compound on vascular eNOS expression the […] were used in this experiment.

eNOS promoter = assay: Activation of eNOS transcription (eNOS promoter-luciferase reporter); type: cell-based, human; settings: 18 h incubation
Experimental: Activation of eNOS transcription was measured as described in detail in Li et al. “Activation of protein kinase C alpha and/or epsilon enhances transcription of the human endothelial nitric oxide synthase gene”, Mol. Pharmacol. 1998, 53: 630–637.
Briefly, a 3.5 kB long fragment 5′ of the starting codon of the eNOS gene was cloned, sequenced and cloned in firefly luciferase expression plasmids to monitor activation of the eNOS promoter by reporter gene activity. A human endothelial cell line stable transfected and expressing this promoter-reporter construct was used for compound testing. Cells were incubated for 18 h with the compound (I).
Prior to incubation of the cells, the compound (I) was dissolved in sterile DMSO. A final concentration of 0.5% DMSO in complete medium was obtained. Induction of reporter gene expression in these cells was measured using a standard luciferase assay system (Promega, Cat. No E150) according to the manufacturer's instructions. Luciferase induction in cells incubated with compound (I) were compared to those incubated with solvent alone. The ratio of both activities (transcription induction ratio, TIR) was plotted as a function of compound concentration. […] EC50 values of transcription induction ratios as a function of compound concentration were determined graphically.

eNOS deficient mice [4] = assay: Blood pressure in eNOS deficient mice (tail-cuff); type: in vivo; settings: similar dosing, after 4 weeks treatment
Source text: as §1, §2

eNOS deficient mice [5] = assay: Femoral artery cuff model in eNOS deficient mice; type: in vivo; settings: similar setup
Source text: as §1
After 3 days treatment of ApoE deficient mice with compound (I), (10 mg/kg/d pressed in chow), animals were anesthetized with an intraperitoneal injection of pentobarbital (60 mg/kg) followed by an intramuscular injection of xylazin (2 mg/kg) and a cuff was placed around the femoral artery as described in Moroi et at. (J Clin Invest. 101:1225–32, 1998). Briefly, the left femoral artery was dissected. […] The aortas were taken for determination of vascular eNOS expressions by quantitative western blotting. […] For each cross section the area of the lumen, the neointima and the media were determined. […] The ratio between the area of the neointima and the area of the media was expressed as the neointima/media ratio.

ApoE deficient mice [6] = assay: Improvement of coronary function in diseased ApoE deficient mice (isolated working heart); type: in vivo
Experimental: Old Male wild-type C57BL/6J mice (Charles River Wiga GmbH, Sulzfeld), and apolE deficient mice (C57BL/6J background, Jackson Laboratory, Bar Harbor, Me.) 6 month of age and weighing 28 to 36 g were used in the experiments. Mice were divided into 3 groups (C57BL/6, n=8; apoE control, n=8; apoE with compound (I), n=8) and received for 8 weeks either a standard rodent chow (containing 4% fat and 0.001% cholesterol) or a standard rodent chow+compound (I) (30 mg/kg/d p.o.).
Mice were anesthetized with sodium pentobarbitone (100 mg/kg i.p.), and the hearts were rapidly excised and placed into ice-cold perfusion buffer. The aorta was cannulated and connected to a perfusion apparatus (HUGO SACHS ELECTRONICS, Freiburg, Germany) which was started immediately at a constant perfusion pressure of 60 mm Hg. Hearts were perfused in a retrograde fashion with modified Krebs bicarbonate buffer, equilibrated with 95% O2 and 5% CO2 and maintained at 37.5° C.
A beveled small tube (PE 50) was passed through a pulmonary vein into the left ventricle and pulled through the ventricular wall, anchored in the apex by a fluted end, and connected to a tip-micromanometer (Millar 1.4 French). The left atrium was cannulated through the same pulmonary vein and the heart switched to the working mode with a constant preload pressure of 10 mm Hg and an afterload pressure of 60 mm Hg. Aortic outflow and atrial inflow were continuously measured using ultrasonic flow probes (HSE/Transonic Systems Inc.). Coronary flow was calculated as the difference between atrial flow and aortic flow. All hemodynamic data were digitized at a sampling rate of 1000·Hz and recorded with a PC using specialized software (HEM, Notocord).
Hearts were allowed to stabilize for 30 min. All functional hemodynamic data were measured during steady state, and during volume- and pressure loading.
Left ventricular function curves were constructed by varying pre-load pressure. For acquisition of preload curves, afterload was set at 60 mm Hg and preload was adjusted in 5 mm Hg steps over a range of 5 to 25 mm Hg. […]

[7] = isolated hearts of ApoE deficient mice, 30 mg/kg/d p.o., 8 weeks

SMILES: O=C(NC1Cc2ccccc2C1)c1ccc(F)cc1 [compound (I), 4-fluoro-N-indan-2-yl benzamide]
- effect on eNOS protein expression (eNOS protein expression): confirmed
- reduction of neo-intima formation (factor) (ApoE deficient mice [1]; 10 mg/kg/d in chow, 3 days before to 14 days after cuff surgery): 2
- neointima to media ratio (ApoE deficient mice [1]; 10 mg/kg/d in chow, cuffed femoral artery, placebo 0.39±0.07): 0.170±0.04
- vascular eNOS expression enhanced by a factor (ApoE deficient mice [1]; 10 mg/kg/d, aortas, quantitative western blotting): 2.1
- blood pressure (ApoE deficient mice [2]): 92±5 mmHg
- overall plaque size in % of total surface (ApoE deficient mice [3]; 16 weeks treatment in chow, aortas, oil red O staining, placebo 13.3±2.6): 5.2±1%
- vascular eNOS expression up-regulation (ApoE deficient mice [3]; 16 weeks treatment, femoral arteries): 1.75 fold
- EC50 (eNOS promoter; human endothelial cell line stably transfected with eNOS promoter-luciferase construct, read-out: EC50 of transcription induction ratio): 800 nM
- TIR(max) (maximum transcription induction ratio) (eNOS promoter; human endothelial cell line, ratio versus solvent alone): 4.10
- blood pressure reduction (eNOS deficient mice [4]): No blood pressure reduction could be observed
- effect on neointima formation / eNOS expression (eNOS deficient mice [5]): No effect
- coronary flow (ApoE deficient mice [6]; isolated hearts of ApoE deficient mice treated 8 weeks with 30 mg/kg/d p.o., wildtype 4.95 ml/min): 5 mL/min
- incidence of ventricular arrhythmias (ApoE deficient mice [6]; [7]): reduced
- pre-load dependent coronary flow (ApoE deficient mice [6]; [7]): improved
